Results as given in patent publication US9012443B2 (Amgen Inc., priority 2011, dated 2015).

Legend:
Nav 1.7 [1] = target: T1, Nav 1.7 (Homo sapiens (Human), UniProt Q15858); test: Nav 1.7 in vitro PX assay (PatchXpress whole cell voltage clamp); type: cell-based; conditions: 293 cells, human Nav1.7, partially inactivated state; read-out: Nav1.7 PX IC50 IP
Procedure, shortened: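 Partially inactivated channel state (holding potential for 20–50% inactivation) probed in human Nav1.7-transfected 293 cells by automated patch clamp, test pulse −10 mV for 20 msec.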

Nav 1.7 [2] = target: T1, Nav 1.7; test: Nav 1.7 IWQ in vitro assay (IonWorks Quattro population patch-clamp); type: cell-based; conditions: 293 cells stably transfected with Nav 1.7; second part of table; read-out: Nav1.7 IWQ IC50 IP
Procedure, shortened: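 Percent block, measured in duplicate, came from peak minus end-of-pulse current on the 26th −20 mV step, and IC50 was fitted against concentration. Stably transfected 293 cells were recorded in population patch-clamp mode before and after a single test concentration, which was added over 3–8 min while cells were unclamped.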

T1 sequence (Q15858 whole entry): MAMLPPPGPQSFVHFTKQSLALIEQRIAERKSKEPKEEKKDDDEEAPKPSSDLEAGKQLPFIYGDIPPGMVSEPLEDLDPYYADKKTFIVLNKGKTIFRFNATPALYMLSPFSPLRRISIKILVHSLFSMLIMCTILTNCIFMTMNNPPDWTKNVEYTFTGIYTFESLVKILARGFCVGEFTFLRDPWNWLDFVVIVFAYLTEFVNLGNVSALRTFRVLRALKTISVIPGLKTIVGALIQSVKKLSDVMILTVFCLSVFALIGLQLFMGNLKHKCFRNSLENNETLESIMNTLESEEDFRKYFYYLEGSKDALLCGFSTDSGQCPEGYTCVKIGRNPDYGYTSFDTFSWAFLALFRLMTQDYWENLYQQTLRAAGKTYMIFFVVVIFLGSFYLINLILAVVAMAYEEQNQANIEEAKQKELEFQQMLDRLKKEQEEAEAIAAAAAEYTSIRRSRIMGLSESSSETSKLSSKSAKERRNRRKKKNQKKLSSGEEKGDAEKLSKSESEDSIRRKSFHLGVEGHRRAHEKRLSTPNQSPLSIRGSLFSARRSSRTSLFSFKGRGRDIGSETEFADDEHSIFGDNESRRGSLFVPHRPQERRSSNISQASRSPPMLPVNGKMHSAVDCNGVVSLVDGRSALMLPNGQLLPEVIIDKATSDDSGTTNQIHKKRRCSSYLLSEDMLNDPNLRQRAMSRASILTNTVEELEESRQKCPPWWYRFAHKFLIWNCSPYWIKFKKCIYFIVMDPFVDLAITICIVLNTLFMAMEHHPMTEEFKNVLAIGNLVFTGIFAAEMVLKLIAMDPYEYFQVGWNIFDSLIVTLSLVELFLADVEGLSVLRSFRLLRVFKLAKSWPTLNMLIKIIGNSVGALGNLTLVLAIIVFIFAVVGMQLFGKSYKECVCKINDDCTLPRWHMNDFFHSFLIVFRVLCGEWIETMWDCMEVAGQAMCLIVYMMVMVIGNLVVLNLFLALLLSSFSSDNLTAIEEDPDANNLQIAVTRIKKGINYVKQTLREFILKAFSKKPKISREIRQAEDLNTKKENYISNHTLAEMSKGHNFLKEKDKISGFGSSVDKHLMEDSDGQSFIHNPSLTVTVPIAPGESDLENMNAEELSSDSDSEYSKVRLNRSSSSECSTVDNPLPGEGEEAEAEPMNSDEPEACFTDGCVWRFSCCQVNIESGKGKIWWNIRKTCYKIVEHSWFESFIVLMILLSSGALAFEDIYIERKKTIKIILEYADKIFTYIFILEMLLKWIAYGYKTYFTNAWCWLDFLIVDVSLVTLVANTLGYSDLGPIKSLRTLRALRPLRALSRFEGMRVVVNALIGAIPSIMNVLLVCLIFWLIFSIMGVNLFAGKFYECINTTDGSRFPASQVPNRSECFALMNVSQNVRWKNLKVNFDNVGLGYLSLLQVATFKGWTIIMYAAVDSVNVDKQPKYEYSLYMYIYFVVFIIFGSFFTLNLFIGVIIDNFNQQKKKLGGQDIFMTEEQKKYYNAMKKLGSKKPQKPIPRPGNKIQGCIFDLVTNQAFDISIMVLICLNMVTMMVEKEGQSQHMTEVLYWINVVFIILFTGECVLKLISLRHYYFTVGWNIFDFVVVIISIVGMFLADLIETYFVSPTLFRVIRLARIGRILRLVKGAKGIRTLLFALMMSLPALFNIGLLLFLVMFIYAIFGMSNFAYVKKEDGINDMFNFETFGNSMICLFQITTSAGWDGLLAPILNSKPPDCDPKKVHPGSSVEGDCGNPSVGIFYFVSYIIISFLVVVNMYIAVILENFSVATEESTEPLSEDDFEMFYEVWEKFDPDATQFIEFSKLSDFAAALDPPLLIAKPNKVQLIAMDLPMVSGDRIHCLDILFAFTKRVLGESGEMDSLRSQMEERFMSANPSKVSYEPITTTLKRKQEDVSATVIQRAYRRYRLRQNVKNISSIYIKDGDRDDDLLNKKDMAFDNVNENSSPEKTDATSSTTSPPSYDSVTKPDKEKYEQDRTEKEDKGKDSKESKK

IC50 (Nav 1.7 [1]) [µM] | IC50 (Nav 1.7 [2]) [µM] | SMILES
0.42 | 0.01 | O=S(=O)(Nc1nccs1)c1ccc2c(-c3ccc(C(F)(F)F)cc3-n3ccnc3)nccc2c1 [Example 229, 1-(2-(1H-IMIDAZOL-1-YL)-4-(TRIFLUOROMETHYL)PHENYL)-N-(THIAZOL-2-YL)ISOQUINOLINE-6-SULFONAMIDE]
2.52 | 1.1 | COc1cc(C(F)(F)F)ccc1-c1ncnc2cc(S(=O)(=O)Nc3nncs3)ccc12 [Example 268, 4-(2-METHOXY-4-(TRIFLUOROMETHYL)PHENYL)-N-(1,3,4-THIADIAZOL-2-YL)QUINAZOLINE-7-SULFONAMIDE]
4.42 | 0.11 | COc1cc(C#N)ccc1-c1nccc2cc(S(=O)(=O)Nc3ccncn3)ccc12 [Example 206, 1-(4-CYANO-2-METHOXYPHENYL)-N-(PYRIMIDIN-4-YL)ISOQUINOLINE-6-SULFONAMIDE]
7.9 | 0.87 | O=S(=O)(Nc1ccncn1)c1ccc2c(OCCCc3ccc(Cl)cc3)nccc2c1 [Example 132, 1-(3-(4-CHLOROPHENYL)PROPOXY)-N-(PYRIMIDIN-4-YL)ISOQUINOLINE-6-SULFONAMIDE]
0.905 | 0.02 | CNc1cc2cc(S(=O)(=O)Nc3nccs3)ccc2c(-c2ccc(C(F)(F)F)cc2OC)n1 [Example 222, 1-(2-METHOXY-4-(TRIFLUOROMETHYL)PHENYL)-3-(METHYLAMINO)-N-(THIAZOL-2-YL)ISOQUINOLINE-6-SULFONAMIDE]
1.05 | 0.26 | COc1ccccc1-c1nncc2cc(S(=O)(=O)Nc3ncc(F)s3)ccc12 [Example 258]
0.27 | 0.04 | COc1cc(C(F)(F)F)ccc1-c1ncc(OC)c2cc(S(=O)(=O)Nc3nccs3)ccc12 [Example 231, 4-METHOXY-1-(2-METHOXY-4-(TRIFLUOROMETHYL)PHENYL)-N-(THIAZOL-2-YL)ISOQUINOLINE-6-SULFONAMIDE 2,2,2-TRIFLUOROACETATE]
0.459 | 0.1 | O=S(=O)(Nc1ncc(F)s1)c1ccc2c(-c3ccc(C(F)(F)F)cc3-n3ccnc3)cccc2c1 [Example 112]
0.492 | 0.04 | CN1CCC=C(c2cc(C(F)(F)F)ccc2-c2cccc3cc(S(=O)(=O)Nc4ccncn4)ccc23)C1 [Example 122]
0.614 | 0.03 | COc1cc(-c2cccnc2)ccc1-c1nccc2cc(S(=O)(=O)Nc3nccs3)ccc12 [Example 204, 1-(2-METHOXY-4-(PYRIDIN-3-YL)PHENYL)-N-(THIAZOL-2-YL)ISOQUINOLINE-6-SULFONAMIDE]
5.03 | 0.18 | COc1cccc(F)c1-c1nccc2cc(S(=O)(=O)Nc3ccncn3)ccc12 [Example 158, 1-(2-FLUORO-6-METHOXYPHENYL)-N-(PYRIMIDIN-4-YL)ISOQUINOLINE-6-SULFONAMIDE]
11.3 | 0.82 | O=S(=O)(Nc1ccncn1)c1ccc2c(-c3cc4cc(F)ccc4[nH]3)cccc2c1 [Example 114]
1.47 | 0.27 | CC1CCCN1c1cccc2cc(S(=O)(=O)Nc3ncns3)ccc12 (centres unmarked) [Example 91]
0.47 | 0.02 | COc1cc(C#N)ccc1-c1nccc2cc(S(=O)(=O)Nc3nccs3)ccc12 [Example 205, 1-(4-CYANO-2-METHOXYPHENYL)-N-(THIAZOL-2-YL)ISOQUINOLINE-6-SULFONAMIDE]
0.796 | 0.17 | COc1cc(C(F)(F)F)ccc1-c1nc(Cl)cc2cc(S(=O)(=O)Nc3nccs3)ccc12 [Example 219, 3-CHLORO-1-(2-METHOXY-4-(TRIFLUOROMETHYL)PHENYL)-N-(THIAZOL-2-YL)ISOQUINOLINE-6-SULFONAMIDE]
13 | 2.22 | O=S(=O)(Nc1nccs1)c1ccc2c(C3CCCN3Cc3ccccc3)cccc2c1 (centres unmarked) [Example 98]
0.424 | 0.03 | COc1cc(-c2cccc(C#N)c2)ccc1-c1nccc2cc(S(=O)(=O)Nc3ccncn3)ccc12 [Example 200, 1-(3′-CYANO-3-METHOXY-[1,1′-BIPHENYL]-4-YL)-N-(PYRIMIDIN-4-YL)ISOQUINOLINE-6-SULFONAMIDE]
23 | 0.73 | COc1cccc(OC)c1-c1nccc2cc(S(=O)(=O)Nc3ccncn3)ccc12 [Example 171, 1-(2,6-DIMETHOXYPHENYL)-N-(PYRIMIDIN-4-YL)ISOQUINOLINE-6-SULFONAMIDE]

IC50 (Nav 1.7 [1]) [µM] | IC50 (Nav 1.7 [2]) [µM] | SMILES
1.99 | 0.08 | COc1cc(C#N)ccc1-c1nncc2cc(S(=O)(=O)Nc3nccs3)ccc12 [Example 251, 1-(4-CYANO-2-METHOXYPHENYL)-N-(THIAZOL-2-YL)PHTHALAZINE-6-SULFONAMIDE]
0.086 | 0.02 | COc1cc(Cl)ccc1-c1ncc(F)c2cc(S(=O)(=O)Nc3nccs3)ccc12 [Example 215, 1-(4-CHLORO-2-METHOXYPHENYL)-4-FLUORO-N-(THIAZOL-2-YL)ISOQUINOLINE-6-SULFONAMIDE]
0.332 | 0.06 | Cn1ccnc1-c1cc(C(F)(F)F)ccc1-c1cccc2cc(S(=O)(=O)Nc3ncc(F)s3)ccc12 [Example 111]
16.4 | 0.92 | COc1ccc(-c2nccc3cc(S(=O)(=O)Nc4ccncn4)ccc23)c(OC)n1 [Example 145, 1-(2,6-DIMETHOXYPYRIDIN-3-YL)-N-(PYRIMIDIN-4-YL)ISOQUINOLINE-6-SULFONAMIDE]
7.84 | 2.48 | N#CCn1c(-c2cccc3cc(S(=O)(=O)Nc4ccncn4)ccc23)cc2cc(F)ccc21 [Example 105]
1.87 | 0.17 | COc1cc(C(F)(F)F)ccc1-c1ncnc2cc(S(=O)(=O)Nc3ncco3)ccc12 [Example 264, 4-(2-METHOXY-4-(TRIFLUOROMETHYL)PHENYL)-N-(OXAZOL-2-YL)QUINAZOLINE-7-SULFONAMIDE]
1.53 | 0.11 | COc1cc2cc(S(=O)(=O)Nc3nccs3)ccc2c(-c2ccc(C(F)(F)F)cc2OC)n1 [Example 221, 3-METHOXY-1-(2-METHOXY-4-(TRIFLUOROMETHYL)PHENYL)-N-(THIAZOL-2-YL)ISOQUINOLINE-6-SULFONAMIDE]
1.37 | 0.03 | COc1ccc(Cl)cc1-c1nccc2cc(S(=O)(=O)Nc3ccncn3)ccc12 [Example 146, 1-(5-CHLORO-2-METHOXYPHENYL)-N-(PYRIMIDIN-4-YL)ISOQUINOLINE-6-SULFONAMIDE]
2.18 | 0.04 | COc1cc(F)c(C)cc1-c1nccc2cc(S(=O)(=O)Nc3ccncn3)ccc12 [Example 154]
3.29 | 0.31 | COc1cc(-c2cnn(C)c2)ccc1-c1nccc2cc(S(=O)(=O)Nc3nccs3)ccc12 [Example 203, 1-(2-METHOXY-4-(1-METHYL-1H-PYRAZOL-4-YL)PHENYL)-N-(THIAZOL-2-YL)ISOQUINOLINE-6-SULFONAMIDE]
0.34 | 0.02 | COc1cc(C(F)(F)F)ccc1-c1nncc2cc(S(=O)(=O)Nc3nccs3)ccc12 [Example 253, 1-(2-METHOXY-4-(TRIFLUOROMETHYL)PHENYL)-N-(THIAZOL-2-YL)PHTHALAZINE-6-SULFONAMIDE]
0.422 | 0.04 | COc1cc(C(F)(F)F)ccc1-c1nccc2cc(S(=O)(=O)Nc3ncc(F)s3)ccc12 [Example 198, N-(5-FLUOROTHIAZOL-2-YL)-1-(2-METHOXY-4-(TRIFLUOROMETHYL)PHENYL)ISOQUINOLINE-6-SULFONAMIDE 2,2,2-TRIFLUOROACETATE]
2.88 | 0.18 | CS(=O)(=O)c1cc(C(F)(F)F)ccc1-c1cccc2cc(S(=O)(=O)Nc3ccncn3)ccc12 [Example 117]
0.508 | 0.34 | COc1cc(-c2cccc(F)c2)ccc1-c1nccc2cc(S(=O)(=O)Nc3nccs3)ccc12 [Example 202, 1-(3′-FLUORO-3-METHOXY-[1,1′-BIPHENYL]-4-YL)-N-(THIAZOL-2-YL)ISOQUINOLINE-6-SULFONAMIDE 2,2,2-TRIFLUOROACETATE]
0.914 | 0.02 | COc1cc(OC(F)(F)F)ccc1-c1nccc2cc(S(=O)(=O)Nc3ccncn3)ccc12 [Example 153, 1-(2-METHOXY-4-(TRIFLUOROMETHOXY)PHENYL)-N-(PYRIMIDIN-4-YL)ISOQUINOLINE-6-SULFONAMIDE]
0.77 | 0.14 | O=S(=O)(Nc1nccs1)c1ccc2c(N3CCC[C@@H]3c3ccccc3)nccc2c1 [Example 238, (R)-1-(2-phenylpyrrolidin-1-yl)-N-(thiazol-2-yl)isoquinoline-6-sulfonamide]
1.56 | 0.11 | COc1cc(NS(=O)(=O)c2ccc3c(-c4ccc(C(F)(F)F)cc4OC)nccc3c2)ncn1 [Example 181, 1-(2-METHOXY-4-(TRIFLUOROMETHYL)PHENYL)-N-(6-METHOXYPYRIMIDIN-4-YL)ISOQUINOLINE-6-SULFONAMIDE]

SMILES | IC50 (Nav 1.7 [1]) [µM] | IC50 (Nav 1.7 [2]) [µM]
O=S(=O)(Nc1ncns1)c1ccc2c(N3CCCC3c3cccnc3)cccc2c1 (centres unmarked) [Example 85] | 0.173 | 0.01
O=S(=O)(Nc1ncns1)c1ccc2c(N3CCCC3c3ccncc3)cccc2c1 (centres unmarked) [Example 88] | 0.238 | 0.02
COc1cc(C(F)(F)F)ccc1-c1nccc2cc(S(=O)(=O)Nc3ccnc(C)n3)ccc12 [Example 182, 1-(2-METHOXY-4-(TRIFLUOROMETHYL)PHENYL)-N-(2-METHYLPYRIMIDIN-4-YL)ISOQUINOLINE-6-SULFONAMIDE] | 11.7 | 4.26
O=S(=O)(Nc1ncns1)c1ccc2c(N3CCC[C@@H]3c3cccnc3)cccc2c1 (single isomer, unassigned) [Example 87] | 1.32 | 0.46
O=S(=O)(Nc1ncns1)c1ccc2c(C3CCCN3)cccc2c1 (centres unmarked) [Example 95, 5-(PYRROLIDIN-2-YL)-N-(1,2,4-THIADIAZOL-5-YL)NAPHTHALENE-2-SULFONAMIDE 2,2,2-TRIFLUOROACETATE] | 7.96 | 0.54
